Reference: patent publication EP2970215B1, “PYRROLIDINE DERIVATIVES, PHARMACEUTICAL COMPOSITIONS CONTAINING THEM, AND THEIR USE IN THERAPY” (AbbVie Deutschland GmbH & Co. KG, priority 2013, dated 2014)

These compounds were tested against T1, human GlyT1c transporter (Homo sapiens, UniProt P48067) (assay: Radioligand binding assay using recombinant CHO cell membranes expressing human GlyT1). Conditions: radioligand binding to human GlyT1c transporter-expressing membranes.
T1 construct: expressed in transfected cells; host or cells: CHO cells (recombinant; line hGlyT1c_5_CHO is named for the uptake assay)
T1 sequence (P48067 1-706): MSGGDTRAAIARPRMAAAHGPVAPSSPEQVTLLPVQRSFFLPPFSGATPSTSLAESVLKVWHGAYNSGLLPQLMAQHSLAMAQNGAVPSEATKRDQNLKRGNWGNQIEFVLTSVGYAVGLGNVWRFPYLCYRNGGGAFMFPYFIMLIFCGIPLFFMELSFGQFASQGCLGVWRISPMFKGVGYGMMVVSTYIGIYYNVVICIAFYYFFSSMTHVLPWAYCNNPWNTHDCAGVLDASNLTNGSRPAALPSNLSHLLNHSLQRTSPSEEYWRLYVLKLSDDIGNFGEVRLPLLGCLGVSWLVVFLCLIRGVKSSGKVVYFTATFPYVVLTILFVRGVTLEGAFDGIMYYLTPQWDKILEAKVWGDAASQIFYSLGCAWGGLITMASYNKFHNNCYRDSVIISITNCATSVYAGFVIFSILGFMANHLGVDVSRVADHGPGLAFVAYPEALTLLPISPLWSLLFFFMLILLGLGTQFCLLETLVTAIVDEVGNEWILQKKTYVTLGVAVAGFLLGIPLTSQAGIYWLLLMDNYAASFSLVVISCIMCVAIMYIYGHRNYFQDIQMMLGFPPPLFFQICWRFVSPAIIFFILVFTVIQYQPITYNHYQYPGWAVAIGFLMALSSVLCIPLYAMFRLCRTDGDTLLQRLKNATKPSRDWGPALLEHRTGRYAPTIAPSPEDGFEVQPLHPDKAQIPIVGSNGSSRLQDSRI
Source text: 2. Radioligand binding assays using recombinant CHO cell membranes expressing human GlyT1: […]
`Cn1cnc(S(=O)(=O)N2C[C@@H](Nc3cccc(F)n3)[C@H](c3ccccc3)C2)c1` (relative stereo) [Example 235, 6-fluoro-N-{trans-1-[(1-methyl-1H-imidazol-4-yl)sulfonyl]-4-phenylpyrrolidin-3-yl}pyridin-2-amine] showed a Ki of at most 10000 nM.
`Cn1cnc(S(=O)(=O)N2C[C@H](NC(=O)Nc3ccc(Cl)cc3)[C@@H](c3ccc(F)cc3)C2)c1` [Example 701, 1-(4-chlorophenyl)-3-{(3R,4S)-4-(4-fluorophenyl)-1-[(1-methyl-1H-imidazol-4-yl)sulfonyl]pyrrolidin-3-yl}urea] showed a Ki of at most 1000 nM.
`O=S(=O)(c1c(Cl)nc2sccn12)N1CC(Nc2ccc(F)c(F)c2)C(c2ccccc2)C1` (stereo not drawn) [Example 520, 1-[(6-chloroimidazo[2,1-b][1,3]thiazol-5-yl)sulfonyl]-N-(3,4-difluorophenyl)-4-phenylpyrrolidin-3-amine] gave a Ki of at most 10000 nM.
With `Cn1cnc(S(=O)(=O)N2C[C@@H](Nc3cc(C(F)(F)F)ncn3)[C@H](c3ncccc3F)C2)c1` (relative stereo) [Example 770, N-{Trans-4-(3-fluoropyridin-2-yl)-1-[(1-methyl-1H-imidazol-4-yl)sulfonyl]pyrrolidin-3-yl}-6-(trifluoromethyl)pyrimidin-4-amine] the Ki was at most 1000 nM.
Compound `Cc1ccc(C#N)cc1N[C@@H]1CN(S(=O)(=O)c2cn(C)cn2)C[C@H]1c1ccccc1` (relative stereo) [Example 82, 4-methyl-3-({trans-1-[(1-methyl-1H-imidazol-4-yl)sulfonyl]-4-phenylpyrrolidin-3-yl}amino)benzonitrile] has a Ki of at most 10000 nM.
`CCOCCNC(=O)[C@@H]1CN(S(=O)(=O)c2cn(C)cn2)C[C@H]1c1ccc(F)cc1` [Example 584, (3S,4R)-N-(2-ethoxyethyl)-4-(4-fluorophenyl)-1-[(1-methyl-1H-imidazol-4-yl)sulfonyl]pyrrolidine-3-carboxamide] gave a Ki of at most 10000 nM.
Compound `Cn1cnc(S(=O)(=O)N2C[C@@H]([C@@H]3CCCOC3)[C@H](Nc3cccc(Oc4ccccc4)c3)C2)c1` (mixture of isomers) [Example 786, trans-1-[(1-methyl-1H-imidazol-4-yl)sulfonyl]-N-(3-phenoxyphenyl)-4-[(3S)-tetrahydro-2H-pyran-3-yl]pyrrolidin-3-amine] has a Ki of at most 1000 nM.
Work on `Cn1cnc(S(=O)(=O)N2C[C@@H](C(=O)NCC3CC3)[C@H](c3ccc(F)cc3)C2)c1` [Example 586, (3S,4R)-N-(cyclopropylmethyl)-4-(4-fluorophenyl)-1-[(1-methyl-1H-imidazol-4-yl)sulfonyl]pyrrolidine-3-carboxamide] yielded a Ki of at most 1000 nM.
Work on `CC(C)c1cccc(N[C@@H]2CN(S(=O)(=O)c3cn(C)cn3)C[C@H]2c2ccc(F)cc2)c1` (relative stereo) [Example 170, trans-4-(4-fluorophenyl)-1-[(1-methyl-1H-imidazol-4-yl)sulfonyl]-N-[3-(propan-2-yl)phenyl]pyrrolidin-3-amine] yielded a Ki of at most 100 nM.
`Cn1cnc(S(=O)(=O)N2C[C@H](NCc3scnc3Cl)[C@@H](c3ccccc3)C2)c1` [Example 565, (3R,4S)-N-[(4-chloro-1,3-thiazol-5-yl)methyl]-1-[(1-methyl-1H-imidazol-4-yl)sulfonyl]-4-phenylpyrrolidin-3-amine] gave a Ki of at most 10000 nM.
Work on `Cn1cnc(S(=O)(=O)N2C[C@H](Nc3cccc(C(C)(O)C(F)(F)F)c3)[C@@H](c3ccccc3)C2)c1` (stereo partly drawn) [Example 399, 1,1,1-trifluoro-2-[3-({(3R,4S)-1-[(1-methyl-1H-imidazol-4-yl)sulfonyl]-4-phenylpyrrolidin-3-yl}amino)phenyl]propan-2-ol] yielded a Ki of at most 100 nM.
In the case of `Cn1cnc(S(=O)(=O)N2C[C@@H](NC(=O)c3ccccc3C(F)(F)F)[C@H](c3ccccc3)C2)c1` (relative stereo) [Example 35, N-{trans-1-[(1-methyl-1H-imidazol-4-yl)sulfonyl]-4-phenylpyrrolidin-3-yl}-2-(trifluoromethyl)benzamide], the Ki is reported as at most 10000 nM.
`Cn1cnc(S(=O)(=O)N2C[C@@H](Nc3cccc(Cl)c3)[C@H](c3cccc(F)c3)C2)c1` (relative stereo) [Example 188, trans-N-(3-chlorophenyl)-4-(3-fluorophenyl)-1-[(1-methyl-1H-imidazol-4-yl)sulfonyl]pyrrolidin-3-amine] was tested, and the Ki was at most 100 nM.
`Cn1cnc(S(=O)(=O)N2C[C@@H](Nc3ccc(Cl)c(C(F)(F)F)c3)[C@H](C3CCCO3)C2)c1` (stereo partly drawn) [Example 618, (3S,4R)-N-[4-chloro-3-(trifluoromethyl)phenyl]-1-[(1-methyl-1H-imidazol-4-yl)sulfonyl]-4-(tetrahydrofuran-2-yl)pyrrolidin-3-amine] showed a Ki of at most 1000 nM.
`Cn1cnc(S(=O)(=O)N2C[C@H](Nc3cc(OCC(F)(F)F)c(F)cn3)[C@@H](c3ccc(F)cc3)C2)c1` [Example 810, 5-fluoro-N-{(3R,4S)-4-(4-fluorophenyl)-1-[(1-methyl-1H-imidazol-4-yl)sulfonyl]pyrrolidin-3-yl}-4-(2,2,2-trifluoroethoxy)pyridin-2-amine] showed a Ki of at most 10 nM.
Work on `Cn1cnc(S(=O)(=O)N2C[C@H](NCc3cncc(-c4ccc(F)cc4)c3)[C@@H](c3ccccc3)C2)c1` [Example 445, (3R,4S)-N-{[5-(4-fluorophenyl)pyridin-3-yl]methyl}-1-[(1-methyl-1H-imidazol-4-yl)sulfonyl]-4-phenylpyrrolidin-3-amine] yielded a Ki of at most 1000 nM.
In the case of `Cn1cnc(S(=O)(=O)N2C[C@@H](Nc3ccccc3C(F)(F)F)[C@H](c3ccccc3)C2)c1` (relative stereo) [Example 66, trans-1-[(1-methyl-1H-imidazol-4-yl)sulfonyl]-4-phenyl-N-[2-(trifluoromethyl)phenyl]pyrrolidin-3-amine], the Ki is reported as at most 10000 nM.
For `Cn1cnc(S(=O)(=O)N2C[C@@H](NC(=O)c3cc(Cl)cc(Cl)c3)[C@H](c3ccccc3)C2)c1` (relative stereo) [Example 30, 3,5-dichloro-N-{trans-1-[(1-methyl-1H-imidazol-4-yl)sulfonyl]-4-phenylpyrrolidin-3-yl}benzamide], the Ki was at most 10000 nM.
`Cn1cnc(S(=O)(=O)N2C[C@H](NCc3cnn4ccccc34)[C@@H](c3ccccc3)C2)c1` [Example 537, (3R,4S)-1-[(1-methyl-1H-imidazol-4-yl)sulfonyl]-4-phenyl-N-(pyrazolo[1,5-a]pyridin-3-ylmethyl)pyrrolidin-3-amine] showed a Ki of at most 10000 nM.
With `Cn1cnc(S(=O)(=O)N2C[C@H](Nc3cc(C(F)(F)F)c(Cl)cn3)[C@@H](c3ccc(F)cc3)C2)c1` [Example 617, 5-chloro-N-{(3R,4S)-4-(4-fluorophenyl)-1-[(1-methyl-1H-imidazol-4-yl)sulfonyl]pyrrolidin-3-yl}-4-(trifluoromethyl)pyridin-2-amine] the Ki was at most 10 nM.
In the case of `Cn1cnc(S(=O)(=O)N2C[C@@H](NCc3cccc(C#N)c3)[C@H](c3ccc(F)cc3)C2)c1` (relative stereo) [Example 152, 3-[({trans-4-(4-fluorophenyl)-1-[(1-methyl-1H-imidazol-4-yl)sulfonyl]pyrrolidin-3-yl}amino)methyl]benzonitrile], the Ki is reported as at most 1000 nM.
Work on `O=C(N[C@@H]1CN(S(=O)(=O)c2ccc(C(F)(F)F)cc2)C[C@H]1c1ccccc1)c1cccc(C(F)(F)F)c1Cl` (relative stereo) [Example 143, 2-chloro-N-[trans-4-phenyl-1-{[4-(trifluoromethyl)phenyl]sulfonyl}pyrrolidin-3-yl]-3-(trifluoromethyl)benzamide] yielded a Ki of at most 10000 nM.
`N#Cc1ccccc1S(=O)(=O)N1C[C@@H](Nc2cc(C(F)(F)F)ccn2)[C@H](c2ccccc2)C1` (relative stereo) [Example 525, 2-{[trans-3-phenyl-4-{[4-(trifluoromethyl)pyridin-2-yl]amino}pyrrolidin-1-yl]sulfonyl}benzonitrile] showed a Ki of at most 10000 nM.
With `Cn1cnc(S(=O)(=O)N2C[C@H](Nc3ccc(F)cn3)[C@@H](c3ccc(F)cc3)C2)c1` [Example 737, 5-fluoro-N-{(3R,4S)-4-(4-fluorophenyl)-1-[(1-methyl-1H-imidazol-4-yl)sulfonyl]pyrrolidin-3-yl}pyridin-2-amine] the Ki was at most 100 nM.
`CC(C)c1cccc(N[C@@H]2CN(S(=O)(=O)c3cn(C)cn3)C[C@H]2c2ccccc2)c1` (relative stereo) [Example 220, trans-1-[(1-methyl-1H-imidazol-4-yl)sulfonyl]-4-phenyl-N-[3-(propan-2-yl)phenyl]pyrrolidin-3-amine] showed a Ki of at most 10 nM.
In the case of `Cn1nccc1S(=O)(=O)N1C[C@@H](NC(=O)c2cccc(C(F)(F)F)c2Cl)[C@H](c2ccccc2)C1` (relative stereo) [Example 47, 2-chloro-N-{trans-1-[(1-methyl-1H-pyrazol-5-yl)sulfonyl]-4-phenylpyrrolidin-3-yl}-3-(trifluoromethyl)benzamide], the Ki is reported as at least 10000 nM.

Same assay, conditions: radioligand binding, recombinant CHO cell membranes expressing human GlyT1c
`Cn1cnc(S(=O)(=O)N2C[C@@H](Nc3cccc(OCC(F)(F)F)c3)[C@H](C3CCCCO3)C2)c1` (relative stereo) [Example 816, Trans-1-[(1-methyl-1H-imidazol-4-yl)sulfonyl]-4-(tetrahydro-2H-pyran-2-yl)-N-[3-(2,2,2-trifluoroethoxy)phenyl]pyrrolidin-3-amine] gave a Ki of at most 10 nM.
